From patent US8318947B2, “Comestible compositions comprising high potency savory flavorants, and processes for producing them” (Senomyx, Inc., priority 2006, dated 2012)

What was measured:
trained tasters = assay: Pizza sauce triangle difference taste test; assay type: in vivo, human
Description: For effective formulation in pizza sauce, a water soluble savory flavor concentrate formulation comprising 0.1% of Compound 1 was developed by dissolution in propylene glycol.
18221.7600 g of propylene glycol (supplied by Gold Coast, Inc.) was weighed out into a 2000 ml stainless steel cylinder, 18.2400 grams of Compound 1 was slowly added to 700.00 g of the propylene glycol using a Silverson Mill (model: L4RT) having a square hole high shear screen and set at 2000 rpm, until all of the dry 5807 (Compound 1) was added to the propylene glycol, the mill rpms was increased to 5,000-6,000 rpm's for 8-10 minutes. The remaining 17,521.76 g of propylene glycol was placed into a 10-gallon steam jacketed kettle equipped with a Lightnin Mixer utilizing a three blade impeller and heated to 50° C. (120° F.), then the milled solution was slowly added to the heated and agitated propylene glycol in the kettle. It took over 30 minutes of heating and mixing to completely solubilize Compound 1, then, the solution was allowed to cool to 80° F., then a Unispense Filler was used to fill sterilized 2 oz. glass containers with 62 grams of the liquid savory flavor, for storage. The water activity of the solution was 0.953@24.7° C., the refractive index was 1.4328, and the final concentration of this savory flavor was 0.10% of Compound 1.
Two pizza sauce samples, one comprising 0.4% of MSG and one containing no MSG, but comprising 1.1 ppm of Compound 1 were prepared using the ingredients listed in Tables 391 and 39-2 below, using the following procedure.
Salt, citric acid, sugar, the spices and herbs, including the MSG, were pre-blended as solids at 80-100 rpms in a 6 quart bowl and mixed using a KitchenAide blender for 5 minutes using a whip attachment. Water was placed in a clean kettle and stirred with a Lightnin mixer at 120-200 rpms to create a vortex. The savory flavor form of Compound 1, 0.10%, was slowly added to the water and mixed for five minutes. The vinegar and solid spice mixture was slowly added with the mixer still blending at 80-100 rpms until the dry seasonings were dissolved, approximately 5 minutes. The tomato paste was added and the slurry was mixed an additional 10. The resulting pizza sauce was transferred to a stainless steel six quart pot on a gas burner and was heated to pasteurizing temperature (175-190° F.) and held for a minimum of two minutes, cooled down to ambient (70+/−2° F.) temperature.
Ten trained tasters were trained to identify relative intensities of the following taste attributes: salty, savory/meaty, umami, brothiness, bitter, linger and off flavors. A triangle difference test determines if there is a sensory difference between two products. Three blinded, coded and randomized samples are presented to the panelist. Two samples are the same and one is different. To answer the test correctly, the panelist must taste all three samples and correctly pick out the sample they feel is different from the other two.
The samples were blind coded and presented in randomized order. The panelists each performed a total of two triangle tests, with 3 samples per test
a. Test 1: 2 samples with 1.1 ppm Compound 1; one sample with MSG.
b. Test 2: 2 samples with MSG; one sample with 1.1 ppm Compound 1.

[1] = tested on: human subjects, savory taste; assay: Human taste test of low sodium tomato juice; assay type: in vivo; settings: 3 μM cpd; 400 mg Na/8 oz tomato juice
Description: Human taste tests were conducted in order to evaluate the ability of the compounds of the invention to enhance the savory flavor of low sodium tomato juice (which naturally comprises some monosodium glutamate).
The final tomato juice samples for taste testing were prepared so as to comprise 90% (by volume) pre-made low sodium tomato juice stock (pH 4.2, 80˜100 mg Na/8 oz, 16 mM of naturally occurring MSG), 5% (by volume) of stock solutions formulated to produce selected final levels of sodium of final juice, and 5% (by volume) of a stock solution of the compound of the invention. Selected oxalamide compounds of the invention were dissolved in LSB (low sodium phosphate buffer), to provide a stock solution at 20 times the desired final concentration in the final tomato juice. The desired final sodium concentration of the final tomato juice was most experiments 73.6 mM (400 mg sodium in 8 oz. of juice), therefore a stock solution of NaCl was made at 1.48 M NaCl. The pH for the stock solutions was adjusted to 4.2 using a 1 M citric acid solution, and the stock solutions were sonicated to ensure the additive compounds were completely dissolved. […]
Scores were averaged across panelists and sessions, and evaluated using a 2-way ANOVA (factors: panelists and samples) and Duncan's multiple comparison test (alpha=0.05) to determine significant differences in intensity ratings.

[2] = Test 1: 2 samples with 1.1 ppm Compound 1, one sample with MSG, 10 panelists
[3] = Test 2: 2 samples with MSG, one sample with 1.1 ppm Compound 1, 10 panelists

Structure (SMILES)	Distinguishing pizza sauce with compound (no MSG) from pizza sauce with full loading of MSG (trained tasters; 1.1 ppm Compound 1 vs 0.4% MSG)	# Correct (trained tasters; [2])	# Incorrect (trained tasters; [2])	# Correct (trained tasters; [3])	# Incorrect (trained tasters; [3])	# Correct (trained tasters; Totals, n = 20)	# Incorrect (trained tasters; Totals, n = 20)	Enhancement of the savory taste of 16 mM glutamate (naturally existing) in low sodium tomato juice [1]
CCCC(CCC)NC(=O)c1ccc2c(c1)OCO2 [Example 1, N-(heptan-4-yl)benzo[d][1,3]dioxole-5-carboxamide]	could not distinguish between the sauces	3	7	6	4	9	11	
COc1ccc(CNC(=O)C(=O)NCCc2ccccn2)c(OC)c1 [Example 24, N-(2,4-Dimethoxy-benzyl)-N′-(2-pyridin-2-yl-ethyl)-oxalamide]								by 1.4 to 1.5-fold
